Source: patent US8183414B2, “N-(1-phenyl-2-arylethyl)-4,5-dihydro-2H-pyrrol-5-amine compounds as subtype selective modulators of ALPHA2B or ALPHA2B and ALPHA2C adrenoceptors” (Allergan, Inc., priority 2008, dated 2012)
Like-named read-outs stand apart in the source and are kept apart here.

Tests used:
Format in all cases: cell-based
α2C adrenergic receptor = target: T1, α2C adrenergic receptor (Homo sapiens, UniProt P18825); experiment: RSAT (Receptor Selection and Amplification Technology) assay, α2C; settings: for EC50: cells expressing the receptor alone, receptor-mediated growth response, NA = not active; for RSAT Rel Eff α2C: relative efficacy compared to a standard full agonist
T1 construct: expressed in transfected cells
T1 sequence (P18825 1-462): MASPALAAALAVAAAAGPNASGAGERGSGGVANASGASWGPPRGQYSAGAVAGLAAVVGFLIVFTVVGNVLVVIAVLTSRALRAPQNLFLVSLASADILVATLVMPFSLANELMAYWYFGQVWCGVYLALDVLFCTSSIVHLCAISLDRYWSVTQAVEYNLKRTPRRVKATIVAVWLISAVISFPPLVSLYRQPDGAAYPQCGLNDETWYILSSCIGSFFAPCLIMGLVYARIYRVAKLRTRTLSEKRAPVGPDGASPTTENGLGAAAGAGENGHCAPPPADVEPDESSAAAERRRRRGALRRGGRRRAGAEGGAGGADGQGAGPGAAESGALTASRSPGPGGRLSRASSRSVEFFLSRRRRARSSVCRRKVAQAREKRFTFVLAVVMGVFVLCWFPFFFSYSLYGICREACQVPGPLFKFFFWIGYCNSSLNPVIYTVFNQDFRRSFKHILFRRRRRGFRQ
Method: (§1) Cells expressing each of the alpha-2 adrenergic receptors alone were incubated with the various compounds and a receptor-mediated growth response was measured.

α2B adrenergic receptor = target: T2, α2B adrenergic receptor (Homo sapiens, UniProt P18089); experiment: RSAT (Receptor Selection and Amplification Technology) assay, α2B; settings: for EC50 / RSAT EC50 α2B: cells expressing the receptor alone, receptor-mediated growth response, NA = not active; for RSAT Rel Eff α2B: relative efficacy compared to a standard full agonist
T2 construct: expressed in transfected cells
T2 sequence (P18089 1-450): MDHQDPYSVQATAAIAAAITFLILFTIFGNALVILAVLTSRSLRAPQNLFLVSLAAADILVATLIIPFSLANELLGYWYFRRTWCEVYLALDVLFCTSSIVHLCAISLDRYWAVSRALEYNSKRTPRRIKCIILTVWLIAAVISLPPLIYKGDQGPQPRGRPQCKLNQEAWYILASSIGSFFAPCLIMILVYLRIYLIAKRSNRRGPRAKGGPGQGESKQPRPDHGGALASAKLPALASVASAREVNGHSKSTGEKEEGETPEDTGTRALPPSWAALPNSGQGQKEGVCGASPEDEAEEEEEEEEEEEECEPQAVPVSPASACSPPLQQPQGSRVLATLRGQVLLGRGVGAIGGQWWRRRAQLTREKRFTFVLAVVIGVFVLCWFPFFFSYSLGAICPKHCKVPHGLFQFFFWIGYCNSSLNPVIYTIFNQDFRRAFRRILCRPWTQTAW
Method: as §1

α2A adrenergic receptor = target: T3, α2A adrenergic receptor (Homo sapiens, UniProt P08913); experiment: RSAT (Receptor Selection and Amplification Technology) assay, α2A
T3 construct: expressed in transfected cells
T3 sequence (P08913 1-465): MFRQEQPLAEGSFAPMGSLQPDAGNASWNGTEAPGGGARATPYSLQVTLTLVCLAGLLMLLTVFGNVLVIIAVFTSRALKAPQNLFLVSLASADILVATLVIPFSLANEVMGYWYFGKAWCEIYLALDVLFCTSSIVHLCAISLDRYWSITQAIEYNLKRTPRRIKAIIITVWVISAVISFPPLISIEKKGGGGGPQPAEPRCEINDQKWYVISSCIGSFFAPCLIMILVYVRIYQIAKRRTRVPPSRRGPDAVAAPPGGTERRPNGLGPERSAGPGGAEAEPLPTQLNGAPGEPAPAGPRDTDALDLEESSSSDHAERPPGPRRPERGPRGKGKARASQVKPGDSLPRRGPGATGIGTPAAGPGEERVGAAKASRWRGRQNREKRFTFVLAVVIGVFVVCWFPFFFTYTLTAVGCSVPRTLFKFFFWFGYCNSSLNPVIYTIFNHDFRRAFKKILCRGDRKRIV
Method: Novel compounds having this general structure were synthesized and tested for alpha adrenergic activity using the Receptor Selection and Amplification Technology (RSAT) assay (Messier et. al., 1995, Pharmacol. Toxicol. 76, pp. 308-311). Cells expressing each of the alpha-2 adrenergic receptors alone were incubated with the various compounds and a receptor-mediated growth response was measured. The compounds activity is described as its EC50 and relative efficacy compared to a standard full agonist.

Row | SMILES | EC50 (α2C adrenergic receptor) [nM] | RSAT Rel Eff α2C (α2C adrenergic receptor) | EC50 (α2B adrenergic receptor; read-out: RSAT EC50 α2B) [nM] | RSAT Rel Eff α2B (α2B adrenergic receptor) | also measured
1 | COc1cccc(CC(NC2=NCCC2)c2cccc(Cl)c2Cl)c1 (centres unmarked) [Compound 13] | 12.9 | (0.36) | 4 | (0.97) | 
2 | c1ccc(C(Cc2ccccn2)NC2=NCCC2)cc1 (centres unmarked) [Compound 24] |  |  | 214 | (0.44) | 
3 | Cc1cccc(C(Cc2cccnc2)NC2=NCCC2)c1C (centres unmarked) [Compound 27] |  |  |  | (1.04) | RSAT EC50 α2B (α2B adrenergic receptor): Potent
4 | Clc1ccccc1C(Cc1ccccc1)NC1=NCCC1 (centres unmarked) [Compound 10] | 13.3 | (0.37) | 12 | (0.51) | 
5 | Cc1cccc(C(Cc2cncc(C)c2C)NC2=NCCC2)c1 (centres unmarked) [Compound 34] |  |  | 5.1 | (0.85) | 
6 | Cc1cncc(CC(NC2=NCCC2)c2cccc(Cl)c2)c1 (centres unmarked) [Compound 29] | 29.8 | (0.36) |  | (1.1) | EC50 (α2A adrenergic receptor; cells expressing the receptor alone, receptor-mediated growth response, NA = not active): 293 nM; RSAT Rel Eff α2A (α2A adrenergic receptor; relative efficacy compared to a standard full agonist): (0.31); RSAT EC50 α2B (α2B adrenergic receptor): Potent
7 | c1ccc(C(Cc2ccncc2)NC2=NCCC2)cc1 (centres unmarked) [Compound 21] | 39.6 | (0.34) | 59.2 | (0.81) | 
8 | Clc1cccc(C(Cc2ccc(Cl)nc2)NC2=NCCC2)c1 (centres unmarked) [Compound 31] |  |  |  | (0.84) | EC50 (α2B adrenergic receptor; RSAT EC50 α2B): 67.2 nM
9 | Clc1cccc(C(CCc2ccccc2)NC2=NCCC2)c1Cl (centres unmarked) [Compound 23] |  |  | 57 | (0.69) | 
10 | Clc1ccc(CC(NC2=NCCC2)c2cccc(Cl)c2Cl)c(Cl)c1 (centres unmarked) [Compound 22] |  |  | 7.1 | (1.03) | 
11 | Clc1ccc(Cl)c(CC(NC2=NCCC2)c2cccc(Cl)c2Cl)c1 (centres unmarked) [Compound 16] | 12.5 | (0.35) | 10.5 | (1.04) | 
12 | Cc1cccc(C(Cc2ccncc2)NC2=NCCC2)c1C (centres unmarked) [Compound 2] | 84.8 | (0.37) | 8.7 | (1.04) | 
13 | c1ccc(C(Cc2cccnc2)NC2=NCCC2)cc1 (centres unmarked) [Compound 25] |  |  | 81.7 | (0.74) | 
14 | Clc1cccc(C(Cc2cccnc2)NC2=NCCC2)c1Cl (centres unmarked) [Compound 28, N-(1-(2,3-dichlorophenyl)-2-(pyridin-3-yl)ethyl)-3,4-dihydro-2H-pyrrol-5-amine] |  |  |  | (1.19) | RSAT EC50 α2B (α2B adrenergic receptor): Potent
15 | Cc1ccccc1CC(NC1=NCCC1)c1cccc(Cl)c1 (centres unmarked) [Compound 9] | 2.8 |  | 3.2 | (0.62) | 
16 | Clc1cccc(C(Cc2ccncc2)NC2=NCCC2)c1Cl (centres unmarked) [Compound 1] | 48.4 | (0.59) | 8.9 | (1.25) | 
17 | Clc1cccc(C(Cc2ccccc2)NC2=NCCC2)c1 (centres unmarked) [Compound 8] |  |  | 11.6 | (0.71) | 

Row | SMILES | EC50 (α2C adrenergic receptor) [nM] | RSAT Rel Eff α2C (α2C adrenergic receptor) | EC50 (α2B adrenergic receptor; read-out: RSAT EC50 α2B) [nM] | RSAT Rel Eff α2B (α2B adrenergic receptor) | also measured
18 | Clc1ccc(CC(NC2=NCCC2)c2cccc(Cl)c2Cl)cc1Cl (centres unmarked) [Compound 26] |  |  | 8.6 | (0.93) | 
19 | Fc1cccc(Cl)c1CC(NC1=NCCC1)c1cccc(Cl)c1Cl (centres unmarked) [Compound 17] |  |  | 19.5 | (0.73) | 
20 | Fc1c(Cl)cccc1C(Cc1ccncc1)NC1=NCCC1 (centres unmarked) [Compound 5] |  |  | 10.8 | (0.94) | 
21 | Clc1cccc(C(Cc2cccnc2Cl)NC2=NCCC2)c1 (centres unmarked) [Compound 30] |  |  |  | (1.09) | RSAT EC50 α2B (α2B adrenergic receptor): Potent
22 | Cc1cccc(C(Cc2ccccc2)NC2=NCCC2)c1C (centres unmarked) [Compound 6] |  |  | 2.9 | (0.72) | 
23 | c1ccc(CC(NC2=NCCC2)c2ccccc2)cc1 (centres unmarked) [Compound 3] | 14.1 | (0.36) | 21.3 | (0.63) | 
24 | Cc1cccc(C(Cc2ccncc2)NC2=NCCC2)c1C (single isomer, unassigned) [Compound 18] | 19.6 | (0.43) | 3.1 | (0.93) | 
25 | Fc1ccc(CC(NC2=NCCC2)c2cccc(Cl)c2Cl)cc1 (centres unmarked) [Compound 11] |  |  | 8 | (0.80) | 
26 | Clc1cc(Cl)cc(CC(NC2=NCCC2)c2cccc(Cl)c2Cl)c1 (centres unmarked) [Compound 20] | 17.1 | (0.46) | 2.2 | (1.18) | 
27 | Fc1c(Cl)cccc1C(Cc1ccccc1)NC1=NCCC1 (centres unmarked) [Compound 14] | 6.3 | (0.36) | 8.6 | (0.96) | 
28 | Clc1cccc(C(Cc2ccccc2Br)NC2=NCCC2)c1Cl (centres unmarked) [Compound 12] |  |  | 8.7 | (0.96) | 
29 | Cc1cncc(CC(NC2=NCCC2)c2cccc(Cl)c2)c1C (centres unmarked) [Compound 33] |  |  | 19.9 | (0.91) | 
30 | Cc1c(F)cccc1CC(NC1=NCCC1)c1cccc(Cl)c1Cl (centres unmarked) [Compound 15] |  |  | 12.8 | (0.70) | 
31 | Cc1c(Br)cncc1CC(NC1=NCCC1)c1cccc(Cl)c1 (centres unmarked) [Compound 32] |  |  | 11.2 | (0.92) | 
32 | Clc1cccc(C(Cc2ccccc2)NC2=NCCC2)c1Cl (centres unmarked) [Compound 7] |  |  | 6.6 | (0.88) | 
33 | Clc1ccccc1C(Cc1ccncc1)NC1=NCCC1 (centres unmarked) [Compound 4] | 10.3 | (0.56) | 38.4 | (0.57) | 
34 | Cc1cccc(C(Cc2ccncc2)NC2=NCCC2)c1C (single isomer, unassigned) [Compound 19] |  |  | 210 | (0.58) | 
